Measured values: US7052676B2, “Methods for inhibition of HIV replication using a small molecule inhibitor” (priority 2000, dated 2006)
Entries after “also recorded” stand apart in the source; their conditions may differ. Where two headings read alike, the source gives them in different places.

How the values were obtained:
GRO-α production by MDM = assay type: cell-based, human
monocytes = test: Intracellular GRO staining of PBMC (flow cytometry); assay type: cell-based, human; conditions: staining after 6 hours
Method: Intracellular cytokine staining: PBMC were collected as described above and cultured in RPMI+10% FBS. The next day, PBMC were treated for 6 h with monensin (GolgiStop™, PharMingen) and incubated with virus, viral proteins, or TNF-α as indicated in the figure legend. PBMC were then collected and stained for the presence of intracellular GRO according to the manufacturer's instructions (PharMingen). Adherent cells were collected by incubation in PBS+10 mM EDTA for 30 min at 4° C. PBMC (both adherent and non-adherent cells) were then incubated in staining buffer (DPBS+1% FBS+0.09% sodium azide) with mouse IgG for 20 min at 4° C. to block non-specific binding of IgG to target cells. After two washes with staining buffer, PBMC were fixed and permeabilized with Cytofix/Cytoperm (PharMingen). PBMC were washed twice in Perm/Wash solution and then stained with either R-phycoerythrin (PE)-conjugated mouse anti-human GRO monoclonal antibody (GRO-PE) or PE-mouse IgG1, κ isotype control immunoglobulin (PharMingen). Analysis of cell staining was performed using an EPICS Elite cell sorter (Beckman-Coulter, Fullerton, Calif.). The monocyte and lymphocyte subpopulations were gated according to the pattern of forward scatter and side scatter.

IL-8 promoter = IL-8 promoter CAT reporter in transfected U937 cells; assay type: cell-based, human; conditions: Tat co-transfection alone, or TNF-α 1 ng/ml alone
Method: Transfection of the U937 Promonocyte Cell Line: U937 cells were transfected by the DEAE-dextran method with 1 μg of HIV-1 Tat (pCG-Tat1) or control vector (pCG) and 10 μg of a plasmid containing the chloramphenicol acetyl transferase (CAT) reporter gene downstream of either sequence which lacks eukaryotic promoter and enhancer sequences (pCAT-Basic, Promega, Madison, Wis.), nucleotides −254 to +19 of the IL-8 promoter (pCAT-IL-8), or the HIV-1-LTR. The cells were either left untreated or treated with TNF-α (1 ng/ml) at 24 hours after transfection and harvested 48 hours after transfection. CAT activity was quantified and normalized for the amount of protein. Values near 6000 represent complete acetylation of chloramphenicol (100%).

CD14+ monocytes = test: Intracellular IL-8 staining of PBMC (flow cytometry); assay type: cell-based, human; conditions: staining after 6 hours; control monocytes 10%
Method: Intracellular Cytokine Staining: PBMC were collected as described above and cultured in RPMI+10% FBS. The next day, PBMC were treated for 6 h with monensin (GolgiStop™, PharMingen) and incubated with virus or TNF-α. PBMC were then collected and stained for the presence of intracellular IL-8 and various cell surface markers according to the manufacturer's instructions (PharMingen). Adherent cells were collected by incubation in PBS+10 mM EDTA for 30 min at 4° C. PBMC (both adherent and non-adherent cells) were incubated in staining buffer (DPBS+1% FBS+0.09% sodium azide) with mouse IgG for 20 min at 4° C. to block non-specific binding of IgG to target cells. PBMC were then washed with staining buffer and stained for cell surface antigens for 30 min at 4° C. using R-phycoerythrin (PE)-conjugated mouse anti-human CD4 (PE-CD4) or CD14 (PE-CD14) monoclonal antibodies or PE-mouse IgG1, κ isotype control immunoglobulin (PharMingen). After two washes with staining buffer, PBMC were fixed and permeabilized with Cytofix/Cytoperm (PharMingen). PBMC were washed twice in Perm/Wash solution and then stained with either fluorescein isothiocyanate (FITC)-conjugated mouse anti-human IL-8 monoclonal antibody or FITC-mouse IgG2a, κ immunoglobulin isotype standard (PharMingen). Analysis of cell staining was performed using an EPICS Elite cell sorter (Beckman-Coulter, Fullerton, Calif.). […]

HIV-1BaL [1] = test: HIV-1BaL replication in monocyte-derived macrophages (MDM), RT activity in supernatants; assay type: cell-based; conditions: for increase of HIV-1BaL replication in MDM by exogenous chemokine, mean over donors: IL-8: 17 donors, GRO-α: 5 donors
Method: (§1) HIV-1 Infection of MDM and PBL: For each experiment, multiple wells of MDM or PBL were infected with equal RT counts of HIV-1 (30–300×10^6 CPM of RT used per 10^5 cells). This amount of CPM of RT activity per cell corresponds to a multiplicity of infection (MOI) of between 0.01 and 0.1 as determined by titration on HOS-CD4-CCR5 and CEM-SS cell lines and quantitation of proviral DNA in PBMC 24 h after infection. MDM were cultured for 3 d prior to infection, washed after an overnight incubation with the virus, and cultured in DME+10% FBS. PHA-activated PBL were washed and incubated in RPMI+10% FBS+IL-2 (40 U/ml) overnight. CD8+cells were depleted with magnetic Dynabeads® M-450 CD8 according to the manufacturer's instructions (Dynal, Lake Success, N.Y.). CD8-depleted PBL were then incubated with HIV-1 for 4 h, washed and incubated in media +IL-2. A portion of the media (25%) was removed from the MDM and PBL supernatants and replaced twice weekly.

HIV-1BRU [2] = test: HIV-1BRU replication in PHA-activated PBL / T lymphocytes, RT activity in supernatants; assay type: cell-based; conditions: for increase of HIV-1BRU replication in PBL by exogenous chemokine, mean over donors: IL-8: 5 donors, CD8-depleted PBL, GRO-α: n=7, p=0.027
Method: as §1

HIV-1BaL [3] = test: HIV-1BaL replication in activated (CD8-depleted) PBL, RT activity; assay type: cell-based; conditions: IL-8: 11 donors; GRO-α: n=6
Method: as §1

HIV-1 = conditions: R5 and X4 isolates of HIV-1 and HIV-2
Method: Reverse Transcriptase (RT) Assay: HIV replication was determined by quantification of the RT activity present in the supernatants using a poly(A)-oligo(dT) template primer as previously described. […] RT activity was assayed using ^32P-labeled deoxythymidine triphosphate incorporated in DNA bound to DE81 paper (Whatman) and quantified using either the Series 400 PhosphorImager and ImageQuant® software (Molecular Dynamics, Sunnyvale, Calif.) or a Betascope radioisotope imaging system. RT activity is reported as phosphoimager counts except when labeled “counts” to signify beta counts.

HIV-1BRU [4] = test: HIV-1BRU (X4) infection of MDM, RT activity; assay type: cell-based; conditions: MDM from multiple donors
Method: as §1

IL-8 production by MDM = IL-8 production by MDM (ELISA of supernatants); conditions: added prior to exposure to HIV-1
MDM = test: MTT assay of cellular viability, proliferation and activation in infected MDM; assay type: cell-based, human
Method: FIG. 3. […] MDM were treated as in FIGS. 1 and 2, and RT activity was measured every three to four days. MDM were also analyzed on day 13 by MTT assay (a measure of cellular viability, proliferation, and activation). Viability and activation was changed by less than 20% at all of the doses evaluated. For each treatment, viral replication was normalized against viability (RT activity/MTT assay) and then expressed relative to the control (no treatment). Data shown are the mean of three experiments;
In a preferred embodiment, the inhibitor is SB225002, a small molecular weight inhibitor that is an antagonist of IL-8 binding to CXCR2. In an alternate preferred embodiment, the inhibitor is antileukinate, a synthetic peptide inhibitor that interferes with both IL-8 and GRO-α binding to receptors. […] Infection of PBL with HIV-1BRU was inhibited by both the small molecule inhibitor, SB225002 (FIG. 29A), and the peptide, antileukinate (FIG. 29B). […] Cellular viability, proliferation, and activation were also analyzed in the infected cells by performing an MTT assay. […] Similarly, doses of antileukinate up to 10^−4 M in PBL and 10^−6 M in MDM reduced cellular viability by not more than 20%, and doses as low as 10^−8 M were effective at inhibiting HIV-1 replication. […]

PBL = assay type: cell-based, human
Excerpt: In a preferred embodiment, the inhibitor is SB225002, a small molecular weight inhibitor that is an antagonist of IL-8 binding to CXCR2. In an alternate preferred embodiment, the inhibitor is antileukinate, a synthetic peptide inhibitor that interferes with both IL-8 and GRO-α binding to receptors. […] Infection of PBL with HIV-1BRU was inhibited by both the small molecule inhibitor, SB225002 (FIG. 29A), and the peptide, antileukinate (FIG. 29B). […] Cellular viability, proliferation, and activation were also analyzed in the infected cells by performing an MTT assay. […] Similarly, doses of antileukinate up to 10^−4 M in PBL and 10^−6 M in MDM reduced cellular viability by not more than 20%, and doses as low as 10^−8 M were effective at inhibiting HIV-1 replication. […] The mean decreases in HIV-1BaL replication in MDM were 4.0±1.3 for 1000 nM SB225002 (p=0.019) and 2.6±0.6 for 10^−6 M antileukinate (p=0.002) relative to controls.

## O=c1c(-c2ccc(O)cc2)coc2cc(O)cc(O)c12 [genistein]
GRO-α production by MDM
  HIV-1BRU-induced GRO-α production by MDM, sensitivity to inhibitor: sensitive

## SDF-1α
GRO-α production by MDM
  GRO-α production by MDM, effect of treatment with the agent alone: not produced

## TNF-α
monocytes
  monocytes in which GRO was present: large percentage of monocytes
IL-8 promoter
  IL-8 promoter activity, effect of single stimulus: activated
CD14+ monocytes
  CD14+ monocytes in which IL-8 was present: > 90%

## CO[C@H]1[C@@H](OC)C[C@H](C)[C@@H](OC)C2=CC(=O)C=C(NC(=O)/C(C)=C/C=C\[C@H](OC)[C@@H](OC(N)=O)/C(C)=C/[C@@H]1C)C2=O [herbimycin A]
GRO-α production by MDM
  HIV-1BRU-induced GRO-α production by MDM, sensitivity to inhibitor: sensitive

## IP-10: CXCR3 ligand, C-X-C chemokine
HIV-1BaL [1]
  HIV-1BaL replication in MDM, effect of exogenous chemokine: stimulation
HIV-1BRU [2]
  HIV-1BRU replication in peripheral blood lymphocytes, effect of exogenous chemokine: stimulation

## IL-8: recombinant human IL-8, C-X-C chemokine
HIV-1BaL [1]
  HIV-1BaL replication in MDM, effect of exogenous chemokine: augmented
  increase of HIV-1BaL replication in MDM by exogenous chemokine, mean over donors: 6.2 fold
HIV-1BRU [2]
  increase of HIV-1BRU replication in PBL by exogenous chemokine, mean over donors: 1.7 fold
HIV-1BRU [2]; PHA-activated, CD8-depleted PBL (FIG. 8C)
  doses that stimulated viral replication: exceeding 5 ng/ml
HIV-1BaL [3]
  increase of HIV-1BaL replication in PBL by exogenous chemokine, mean over donors: 4.8 fold
HIV-1
  replication of other isolates tested, effect of exogenous chemokine: stimulated the replication of all other isolates tested
HIV-1BRU [4]
  susceptibility of MDM to productive infection with X4 HIV (HIV-1BRU) with exogenous chemokine: does not confer susceptibility to productive infection with X4 HIV on MDM

## polymixin B
GRO-α production by MDM; supernatants 20 hours after exposure to virus
  HIV-1BRU-induced GRO-α production by MDM, sensitivity to inhibitor: did not prevent the HIV-1BRU-induced increases in GRO-α
IL-8 production by MDM
  HIV-induced IL-8 production by MDM, effect of antibody or agent: did not prevent the HIV-induced increase in IL-8 production

## O=C(Nc1ccc([N+](=O)[O-])cc1O)Nc1ccccc1Br [SB225002, N-(2-hydroxy-4-nitrophenyl)-N′-(2-bromophenyl)urea, reference compound]
HIV-1BaL [1]; 1000 nM, p=0.019
  mean decrease in HIV-1BaL replication in MDM relative to controls: 4.0±1.3
HIV-1BaL [1]; RT activity normalized against MTT, relative to no treatment, mean of three experiments
  HIV replication in MDM, effect of inhibitor: significantly decrease HIV replication
HIV-1BRU [2]; treated every three days from one day before infection, RT activity days 3, 6, 9
  HIV-1BRU infection/replication in PBL, effect of inhibitor: decreases HIV-1 replication; also recorded: inhibited
MDM
  cellular viability (MTT), effect of the doses used: did not negatively affect cellular viability
PBL
  cellular viability (MTT), effect of the doses used: did not negatively affect cellular viability

## GRO-α: recombinant C-X-C chemokine growth-regulated oncogene-alpha, ligand of CXCR2
HIV-1BaL [1]
  HIV-1BaL replication in MDM, effect of exogenous chemokine: augmented
  increase of HIV-1BaL replication in MDM by exogenous chemokine, mean over donors: 14 fold
HIV-1BRU [2]
  increase of HIV-1BRU replication in PBL by exogenous chemokine, mean over donors: 2.4 fold
HIV-1BaL [3]
  increase of HIV-1BaL replication in PBL by exogenous chemokine, mean over donors: 5 fold
HIV-1
  replication of other isolates tested, effect of exogenous chemokine: stimulated the replication of all isolates tested
HIV-1BRU [4]
  susceptibility of MDM to productive infection with X4 HIV (HIV-1BRU) with exogenous chemokine: does not confer susceptibility to productive infection with X4 HIV on MDM

B1: RANTES: C-C chemokine which binds to CCR5 and CCR1 (protein, UniProt P13501 24-91, looked up)
C-C motif chemokine 5: SPYSSDTTPCCFAYIARPLPRAHIKEYFYTSGKCSNPAVVFVTRKNRQVCANPEKKWVREYINSLEMS
GRO-α production by MDM
  GRO-α production by MDM, effect of treatment with the agent alone: nor RANTES, which binds to CCR5 and CCR1, was able to stimulate GRO-α production

B2: MIG: CXCR3 ligand, C-X-C chemokine (protein, UniProt Q07325 23-125, looked up)
C-X-C motif chemokine 9: TPVVRKGRCSCISTNQGTIHLQSLKDLKQFAPSPSCEKIEIIATLKNGVQTCLNPDSADVKELIKKWEKQVSQKKKQKNGKKHQKKKVLKVRKSQRSRQKKTT
HIV-1BRU [2]
  HIV-1BRU replication in peripheral blood lymphocytes, effect of exogenous chemokine: stimulation

B3: I-TAC: CXCR3 ligand, C-X-C chemokine (protein, UniProt O14625 22-94, looked up)
C-X-C motif chemokine 11: FPMFKRGRCLCIGPGVKAVKVADIEKASIMYPSNNCDKIEVIITLKENKGQRCLNPKSKQARLIIKKVERKNF
HIV-1BRU [2]
  HIV-1BRU replication in peripheral blood lymphocytes, effect of exogenous chemokine: stimulation
